Legend:
[1] = format: physicochemical
[2] = Stability at high temperature of the crystalline form; format: physicochemical; conditions: up to its melting point
[3] = Loss in mass (dehydration) of monohydrate form C at low humidity; format: physicochemical; conditions: below 50% humidity and between 20° C. and 80° C.; 1 mole of water/mole of the acid
Protocol: According to another aspect of the present invention, form A can also be obtained from another monohydrate crystalline form known hereinbelow as form C. Below 50% humidity and between 20° C. and 80° C., form C undergoes a loss in mass of 3.7% by weight (1 mole of water/mole of the acid). […] Form B is obtained more particularly by heating form C to 70° C. or from form C held at 25° C. at 0% humidity.

Row | hygroscopicity ([1]; solid crystalline form) | state after storage ([1]; storage at 97% relative humidity for 11 weeks at 20° C.) | loss in mass (dehydration to form B) [3] | SMILES | stability at high temperature [2]
1 | not hygroscopic | still anhydrous and stable | – | COc1ccc2nccc([C@@H](O)CC[C@@H]3CCN(CCSc4cccs4)C[C@@H]3C(=O)O)c2c1 [Form A, (3R,4R)-4-[3-(S)-hydroxy-3-(6-methoxyquinolin-4-yl)propyl]-1-[2-(2-thienylthio)ethyl]piperidine-3-carboxylic acid] | stable at high temperature, namely up to its melting point
2 | – | – | 3.7 % by weight | COc1ccc2nccc([C@@H](O)CC[C@@H]3CCN(CCSc4cccs4)C[C@@H]3C(=O)O)c2c1 [Form C, (3R,4R)-4-[3-(S)-hydroxy-3-(6-methoxyquinolin-4-yl)propyl]-1-[2-(2-thienylthio)ethyl]piperidine-3-carboxylic acid] | –

— patent US6982334B2, “Crystalline form of (3R,4R)-4-[3-(S)-hydroxy-3-(6-methoxyquinolin-4-yl)propyl]-1-[2-(2-thienylthio)ethyl]piperindine-3-carboxylic acid” (Aventis Pharma S.A., priority 2002, dated 2006)
